Results taken from patent US20240398837A1, “Combination Therapy For Prostate Cancer” (Janssen Pharmaceutica NV, priority 2017, published 2024).
Like-named read-outs stand apart in the source and are kept apart here.

Experiments:
androgens = settings: cited from earlier work
[1] = tested on: human VCaP prostate tumors; settings: for TGI (%): day 58, vs. vehicle control; for TGI (%) / Tumor on day: p.o. Qd x 35; for ILS (%): increased life span, compared with group 1 (vehicle); for MLS: median lifespan, euthanized when tumor volume reached 1500 mm^3; for Tumor on day: tumor volume, Mean ± SEM, day 58, N=10/group
mCRPC = settings: cited from earlier work
PARP-1 = PARP-1 (Homo sapiens, UniProt P09874); settings: in words; cited from earlier work
PARP-2 = PARP-2 (Homo sapiens, UniProt Q9UGN5); settings: in words; cited from earlier work
[2] = tested on: cancer cell lines that have been silenced for BRCA-1 or BRCA-2 genes, or that have BRCA-1 and BRCA-2 mutations; settings: due to cell cycle arrest, followed by apoptosis; cited from earlier work
[3] = tested on: BRCA-1-deficient breast, BRCA-2-deficient pancreatic and ovarian cancers; settings: mice; cited from earlier work
[4] = tested on: cytochrome P450 (CYP) enzymes; settings: in words; cited from earlier work
CYP1A2 = settings: preclinical data; cited from earlier work
[5] = cited from earlier work
P-glycoprotein = P-glycoprotein (Homo sapiens, UniProt P08183); settings: cited from earlier work
neurological function = settings: conscious mice; cited from earlier work
[6] = anesthetized dogs; cited from earlier work
[7] = added to castration, relative to castration alone

PARP-1, sequence (P09874 whole entry, species assumed): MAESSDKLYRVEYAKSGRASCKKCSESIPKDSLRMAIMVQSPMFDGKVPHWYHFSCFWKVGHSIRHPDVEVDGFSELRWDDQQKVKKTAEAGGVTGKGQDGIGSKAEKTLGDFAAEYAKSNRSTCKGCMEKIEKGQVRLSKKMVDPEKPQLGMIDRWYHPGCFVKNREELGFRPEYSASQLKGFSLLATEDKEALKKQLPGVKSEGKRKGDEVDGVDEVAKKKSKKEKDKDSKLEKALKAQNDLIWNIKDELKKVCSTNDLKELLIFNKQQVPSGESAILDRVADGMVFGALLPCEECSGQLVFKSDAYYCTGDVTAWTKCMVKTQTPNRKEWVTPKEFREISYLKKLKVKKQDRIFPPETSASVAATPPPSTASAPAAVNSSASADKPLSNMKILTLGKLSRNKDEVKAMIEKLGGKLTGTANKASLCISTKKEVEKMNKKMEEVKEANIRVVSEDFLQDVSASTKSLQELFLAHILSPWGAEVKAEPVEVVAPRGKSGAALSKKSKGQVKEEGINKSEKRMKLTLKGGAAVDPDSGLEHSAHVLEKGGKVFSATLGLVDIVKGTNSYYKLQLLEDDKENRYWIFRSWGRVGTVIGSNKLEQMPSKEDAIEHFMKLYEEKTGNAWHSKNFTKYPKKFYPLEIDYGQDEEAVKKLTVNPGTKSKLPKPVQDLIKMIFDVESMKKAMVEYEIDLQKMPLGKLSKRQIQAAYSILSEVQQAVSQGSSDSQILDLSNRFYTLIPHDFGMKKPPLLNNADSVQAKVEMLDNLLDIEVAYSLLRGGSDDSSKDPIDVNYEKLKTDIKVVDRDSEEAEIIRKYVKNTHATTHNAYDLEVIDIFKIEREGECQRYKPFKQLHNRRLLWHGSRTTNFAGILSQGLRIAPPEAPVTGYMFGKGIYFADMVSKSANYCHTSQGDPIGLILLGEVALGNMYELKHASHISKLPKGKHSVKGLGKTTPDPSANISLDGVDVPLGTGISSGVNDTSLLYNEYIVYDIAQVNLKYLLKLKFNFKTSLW
P-glycoprotein, sequence (P08183 whole entry): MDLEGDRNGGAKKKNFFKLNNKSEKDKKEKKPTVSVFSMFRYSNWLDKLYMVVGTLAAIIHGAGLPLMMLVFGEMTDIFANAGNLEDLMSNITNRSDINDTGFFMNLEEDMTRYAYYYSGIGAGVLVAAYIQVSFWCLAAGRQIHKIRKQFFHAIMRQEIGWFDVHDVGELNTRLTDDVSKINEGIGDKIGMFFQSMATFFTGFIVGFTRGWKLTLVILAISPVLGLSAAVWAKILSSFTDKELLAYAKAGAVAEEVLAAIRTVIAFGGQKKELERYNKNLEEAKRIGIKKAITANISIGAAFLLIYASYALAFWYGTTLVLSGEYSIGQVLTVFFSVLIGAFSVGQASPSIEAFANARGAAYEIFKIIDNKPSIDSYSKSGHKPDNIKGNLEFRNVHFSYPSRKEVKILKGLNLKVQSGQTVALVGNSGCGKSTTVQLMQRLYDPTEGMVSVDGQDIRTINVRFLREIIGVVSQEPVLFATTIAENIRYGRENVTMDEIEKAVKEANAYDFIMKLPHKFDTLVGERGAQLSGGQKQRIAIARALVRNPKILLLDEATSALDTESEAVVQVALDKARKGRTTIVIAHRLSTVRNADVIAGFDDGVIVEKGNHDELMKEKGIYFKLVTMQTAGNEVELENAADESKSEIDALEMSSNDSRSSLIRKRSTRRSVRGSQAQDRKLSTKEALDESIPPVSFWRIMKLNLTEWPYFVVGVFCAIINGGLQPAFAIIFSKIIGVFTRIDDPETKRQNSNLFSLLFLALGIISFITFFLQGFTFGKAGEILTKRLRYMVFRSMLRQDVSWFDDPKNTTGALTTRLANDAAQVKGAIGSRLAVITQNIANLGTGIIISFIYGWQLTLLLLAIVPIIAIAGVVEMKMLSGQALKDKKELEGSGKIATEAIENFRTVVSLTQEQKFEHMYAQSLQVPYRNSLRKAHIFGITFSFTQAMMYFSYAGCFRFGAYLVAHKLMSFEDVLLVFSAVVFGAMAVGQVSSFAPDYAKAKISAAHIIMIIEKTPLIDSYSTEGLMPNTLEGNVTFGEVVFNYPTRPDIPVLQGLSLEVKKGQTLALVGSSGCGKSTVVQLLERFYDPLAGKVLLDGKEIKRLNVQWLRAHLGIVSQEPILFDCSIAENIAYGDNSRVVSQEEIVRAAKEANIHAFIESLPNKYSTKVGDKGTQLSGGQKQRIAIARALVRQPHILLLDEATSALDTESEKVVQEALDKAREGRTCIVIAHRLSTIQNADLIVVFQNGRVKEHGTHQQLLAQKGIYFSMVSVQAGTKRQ
PARP-2, sequence (Q9UGN5 whole entry, species assumed): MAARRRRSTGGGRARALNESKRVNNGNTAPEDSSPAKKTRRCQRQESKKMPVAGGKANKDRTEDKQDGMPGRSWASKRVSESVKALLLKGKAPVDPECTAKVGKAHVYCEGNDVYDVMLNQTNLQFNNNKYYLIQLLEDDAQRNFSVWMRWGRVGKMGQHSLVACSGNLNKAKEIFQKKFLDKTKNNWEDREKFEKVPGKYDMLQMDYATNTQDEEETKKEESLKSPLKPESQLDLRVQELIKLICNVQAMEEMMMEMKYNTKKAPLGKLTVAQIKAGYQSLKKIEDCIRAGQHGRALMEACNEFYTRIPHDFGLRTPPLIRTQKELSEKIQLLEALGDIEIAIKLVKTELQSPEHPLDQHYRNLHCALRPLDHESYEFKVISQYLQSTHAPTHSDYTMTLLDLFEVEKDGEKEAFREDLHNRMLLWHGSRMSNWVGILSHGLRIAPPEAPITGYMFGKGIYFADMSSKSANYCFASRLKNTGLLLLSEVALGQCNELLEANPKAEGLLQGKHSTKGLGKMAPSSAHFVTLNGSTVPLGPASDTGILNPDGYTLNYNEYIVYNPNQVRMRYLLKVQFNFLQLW

CC(=O)O[C@H]1CC[C@@]2(C)C(=CC[C@@H]3[C@@H]2CC[C@]2(C)C(c4cccnc4)=CC[C@@H]32)C1 [abiraterone acetate, 3β-acetoxy-17-(3-pyridyl)androsta-5,16-diene]
reduction of levels of DHEA (androgens; [7]): 97-98% | reduction of levels of DHT (androgens; [7]): 85% | reduction of levels of androstenedione (androgens; [7]): 77-78% | circulating testosterone levels (androgens; after administration of abiraterone acetate, castration gives 20 ng/dL): less than 1 ng/dL

C[C@]12CC[C@H](O)CC1=CC[C@@H]1[C@@H]2CC[C@]2(C)C(c3cccnc3)=CC[C@@H]12 [Abiraterone]
TGI (%) [1]: 37.6% | inhibition of tumor growth ([1]; days 37-55, compared with vehicle control): 35%-46% | ILS (%) [1]: 13.1% | MLS [1]: 88 days | Tumor on day [1]: 523 ± 51 mm^3 | increase of MLS ([1]; vs the vehicle control group): 10.5 days

O=C(c1cc(Cc2n[nH]c(=O)c3ccccc23)ccc1F)N1CCN(C(=O)C2CC2)CC1 [olaparib]
responders that were biomarker-positive for anomalies in DNA-repair genes (mCRPC; 14 of the 16 responding patients): 88% | patients with a response (mCRPC; all patients, sixteen of 49, 95% CI 20%, 48%): 33% | Overall survival (OS), median (mCRPC; biomarker-negative group): 7.5 months | Radiographic progression-free survival (rPFS), median (mCRPC; biomarker-negative group): 2.7 months | patients with a response (mCRPC; biomarker-negative, 2 of 33): 6% | Overall survival (OS), median (mCRPC; biomarker-positive group): 13.8 months | Radiographic progression-free survival (rPFS), median (mCRPC; biomarker-positive group): 9.8 months | patients with a response (mCRPC; patients with ATM aberrations): 4 of 5 | patients with a response (mCRPC; patients with BRCA-2 loss): all 7

NC(=O)c1cccc2cn(-c3ccc([C@@H]4CCCNC4)cc3)nc12 [Niraparib, 2-[4-[(3S)-piperidin-3-yl]phenyl]indazole-7-carboxamide]
TGI (%) [1]: 20.8% | inhibition of tumor growth ([1]; days 41-55, compared with vehicle control): approximately 25% | MLS / survival benefit ([1]; in words, compared with the vehicle control group): did not increase MLS or provide a significant survival benefit | ILS (%) [1]: −0.6% | MLS [1]: 79 days | Tumor on day [1]: 664 ± 50 mm^3 | activity against PARP-1 (PARP-1): potent activity | activity against PARP-2 (PARP-2): potent activity | anti-proliferative activity [2]: demonstrates anti-proliferative activity | antitumor activity [3]: has antitumor activity | inhibition or induction of CYP enzymes [4]: not a potent inhibitor or inducer | potential to induce CYP1A2 enzymes (CYP1A2): moderate potential | metabolism ([5]; in vitro, multiple metabolic enzymes (both CYPs and non-CYPs)): limited metabolism | clearance ([5]; in words): low clearance drug | P-glycoprotein substrate (P-glycoprotein): is a P-glycoprotein substrate | effect on neurological function (neurological function): no effect | QRS cardiac interval [6]: increased | QTc interval [6]: unaffected | heart rate [6]: increased | mean arterial pressure [6]: increased
